The source of these data is US4018777A, “2-Substituted-5-alkyl resorcinols” (Abbott Laboratories, priority 1975, dated 1977).

The test system of assay [1] is methamphetamine (Desoxyn)-induced motor activity. The experiment in a line: Antipsychotic activity (Rat Desoxyn antagonism), motor activity. Type of assay: in vivo. The conditions noted are these: oral, one hour before test; for Antipsychotic activity (Rat Desoxyn antagonism): 10 mg./kg., methamphetamine 3 mg./kg. sc, vs. Desoxyn treated controls. The method, then: Antipsychotic Activity (Rat Desoxyn Antagonism)
Antipsychotic activity (Desoxyn antagonism) was evaluated in motor activity chambers equipped with photocells. Groups of nine rats were given the compound orally one hour before the test and then administered methamphetamine (Desoxyn) 3 mg./kg. sc, and placed in the chamber. Changes in motor activity were recorded as counts from the photocells and are compared to Desoxyn treated controls.

Assay [2] relates to acetic acid-induced writhing in mice. The experiment in a line: Analgesic activity, acetic acid writhing test (W). The format is in vivo, mouse (Swiss-Webster female). The method, then: (§1) The compounds of this invention are useful as analgesic agents, tranquilizers, sedative-hypnotics and anticonvulsants. The compounds are effective at dosages generally of from 1 to 10 mg./kg. of body weight daily. The analgesic activity was established in the standard mouse writhing test [Whittle, Brit. J. Pharmacol., 22, 296 (1964)] and confirmed in the hot plate assay [Woolfe, G. and McDonald, A. J., J. Pharmacol, Exper. Therap., 80, 300 (1944)] and the rat tail flick test.
In testing for the analgesic effect of the present compounds, the acetic acid writhing test was made as that described by [B. A. Whittle, Brit. J. Pharmacol 22, 246 (1964)]. Groups of Swiss-Webster female mice were given oral doses of the drug or control vehicle. The use of the intravenous dye was eliminated. One hour later they were given 0.4 ml. of 0.5% HOAc intraperitoneally. The number of writhes occurring in 20 minutes were counted starting 5 minutes after the injection of HOAc. Analgesic activity was reported as percent inhibition of writhing vs. controls or as ED50%.
For orientation: In writhing tests, fewer writhes than in controls are read as antinociception.

The subject of assay [3] is audiogenic seizure in mice. In words: Anticonvulsant activity, audiogenic seizure test (mouse). The format is in vivo, mouse (male O'Grady strain). The conditions noted are these: 1 hr.; for Anticonvulsant activity, audiogenic seizure: % protection: 100 mg./kg. The source says: Audiogenic Seizure Test (Mouse)
Male O'Grady strain mice (14 to 16 g.) especially bred for susceptibility to audiogenic seizures were used as subjects. The audiogenic apparatus consisted of a wooden box enclosing a metal container with two doorbells attached to the upper section. […] [Ref: N. P. Plotnikoff and D. M. Green, J, Pharmacol. Exp. Ther., 119, 294 (1957)].

Assay [4] has as its system pain threshold to radiant heat on tail (rat tail flick). In words: Analgesic activity, rat tail flick (RTF). Type of assay: in vivo, rat (male Sprague-Dawley). The conditions noted are these: oral, 2 hours after dosing. The method, then: as §1
In testing for analgesic activity by the rat tail flick method described by [F. E. D'Amour and D. L. Smith, J Pharmcol. Exp. Ther. 72, 74 (1941)], the method was modified as follows. Groups of male Sprague-Dawley rats weighing 140-170 g. are prepared by blackening their tails with India ink. Radiant heat is focused on their tails and adjusted so that the normal pain threshholds (time in seconds until an escape response or tail flick occurs) are in the range of 8 to 10 seconds. This is followed by oral administration of the test compound and hourly measurements of the animals' pain threshholds. The analgesic effects are listed in Table I as percent increase over initial pain threshhold 2 hours after dosing, or ED50's.

For the compound `C=C(C)c1ccc(C)cc1-c1c(OC(C)=O)cc(C(C)C(C)CCCCC)cc1OC(C)=O` (stereo not drawn) [Compound (XI), 1,3-Diacetyl-2-[(2-isopropenyl-5-methyl)phenyl]-5-(3-methyl-2-octyl)resorcinol], in assay [1], the “Antipsychotic activity (Rat Desoxyn antagonism)” value was determined as 55%. In assay [2] (10-40 mg./kg.), the “Analgesic activity, W(PO): percent inhibition of writhing vs. controls” value was 40-50%. Besides, the “Anticonvulsant activity, audiogenic seizure: % protection” value (“Anticonvulsant activity … % protection” for short) in assay [3] stood at 70%.
The ED50 is the dose that gives a 50% effect, or the effect in half of the subjects. Regarding `C=C(C)c1ccncc1-c1c(OC(C)=O)cc(C(C)C(C)CCCCC)cc1OC(C)=O` (stereo not drawn) [Compound (VII), 1,3-Diacetyl-2-[4-Isopropenyl-3-Pyridyl]-5-(3-Methyl-2-Octyl)Resorcinol], in assay [1], the “Antipsychotic activity (Rat Desoxyn antagonism)” value was 66%. In assay [4] (20 mg./kg.), the “Analgesic activity, RTF: percent increase over initial pain threshhold” value is recorded as 23%. The ED50 in assay [3] (Mus musculus, protection, estimated (est.)) is approximately 9 mg/kg.
Take `CCCCCC(C)C(C)c1cc(OC(C)=O)c(-c2cnccc2C(C)C)c(OC(C)=O)c1` (stereo not drawn) [Compound (IX), 1,3-Diacetyl-2-[4-Isopropyl-3-Pyridyl]-5-(3-Methyl-2-Octyl)Resorcinol]: the “Analgesic activity, W(PO): percent inhibition of writhing vs. controls” value in assay [2] (80 mg./kg.) worked out at 30%. In assay [4] (40 mg./kg.), the “Analgesic activity, RTF: percent increase over initial pain threshhold” value is given as 20%.
Regarding `C=C(C)c1ccncc1-c1c(O)cc(C(C)C(C)CCCCC)cc1O` (stereo not drawn) [Compound (VIII), 2-[4-Isopropenyl-3-Pyridyl]-5-(3-Methyl-2-Octyl) Resorcinol], the “Antipsychotic activity (Rat Desoxyn antagonism), result in words” value in assay [1] (dose not stated) is listed as “Inactive”. In addition, the “Analgesic activity, RTF: percent increase over initial pain threshhold” value in assay [4] (40 mg./kg.) amounted to 59%. The “Anticonvulsant activity … % protection” value in assay [3] is 100%.
In assay [2] (Mus musculus, po), `CCCCCC(C)C(C)c1cc(O)c(-c2cnccc2C(C)C)c(O)c1` (stereo not drawn) [Compound (X), 2-[4-Isopropyl-3-pyridyl]-5-(3-methyl-2-octyl)resorcinol] registered an ED50 of 44 mg/kg. In assay [4] (40 mg./kg.), the “Analgesic activity, RTF: percent increase over initial pain threshhold” value stood at 53%. For the same compound, the “Anticonvulsant activity … % protection” value in assay [3] was determined as 60%.
Turning to `CCCCCC(C)C(C)c1cc(O)c(-c2cc(C)ccc2C(C)C)c(O)c1` (stereo not drawn) [Compound (XII), 2-[(2-Isopropyl-5-methyl)phenyl]-5-(3-methyl-2-octyl)resorcinol], the “Antipsychotic activity (Rat Desoxyn antagonism)” value in assay [1] was 77%. Moreover, the “Analgesic activity, W(PO): percent inhibition of writhing vs. controls” value in assay [2] (40 mg./kg.) turned out to be 47%. Further, the “Analgesic activity, RTF: percent increase over initial pain threshhold” value in assay [4] (22 mg./kg.) was 45%. The “Anticonvulsant activity … % protection” value in assay [3] was determined as 60%.
